Experimental data reported in PubChem BioAssay (NCI).
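Five compound concentrations were applied to cells in 96-well plates for 48 hours; endpoints were derived by simple linear interpolation of the resulting dose-response curve. The concentration for full growth arrest is given as TGI.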

Tests used:
Assay in all cases: inhibition of tumour cell growth, NCI panel, 48 h
[1] = system: TK-10 renal
[2] = system: CCRF-CEM leukemia
[3] = system: CAKI-1 renal
[4] = system: SR leukemia
[5] = system: HL-60(TB) leukemia
[6] = system: T-47D breast
[7] = system: SN12C renal
[8] = system: HS 578T breast
[9] = system: SNB-19 CNS
[10] = system: NCI-H23 lung
[11] = system: MOLT-4 leukemia
[12] = system: SK-OV-3 ovarian
[13] = system: MDA-N
[14] = system: SF-295 CNS
[15] = system: SK-MEL-2 melanoma
[16] = system: NCI-H522 lung

## COc1cc2c(c(OC)c1OC)-c1ccc(SC)c(=O)cc1[C@@H](OC(C)=O)CC2
[1]
  TGI: > 100 µM
[2]
  TGI: 0.0312 µM
[3]
  TGI: > 100 µM
[4]
  TGI: > 100 µM
[5]
  TGI: 0.0242 µM
[6]
  TGI: > 100 µM
[7]
  TGI: > 100 µM
[8]
  TGI: > 100 µM
[9]
  TGI: > 100 µM
[10]
  TGI: 0.194 µM
[11]
  TGI: > 100 µM

## O=C1/C(=C\c2cccc(Oc3ccccc3)c2)S(=O)(=O)C(c2ccccc2)N1c1ccccc1Cl (stereo not drawn)
[12]
  TGI: > 100 µM
[1]
  TGI: > 100 µM
[13]
  TGI: 50.2 µM
[2]
  TGI: 51.2 µM
[3]
  TGI: > 100 µM
[14]
  TGI: > 100 µM
[4]
  TGI: 62.4 µM
[5]
  TGI: 33.6 µM
[6]
  TGI: > 100 µM
[7]
  TGI: 72 µM
[15]
  TGI: > 100 µM
[16]
  TGI: 49.1 µM
[9]
  TGI: 64 µM
[10]
  TGI: > 100 µM
[11]
  TGI: 48.9 µM

## O=C(CC/C=C(/CS(=O)(=O)c1ccccc1)S(=O)(=O)c1ccccc1)c1ccccc1
[12]
  TGI: > 100 µM
[1]
  TGI: > 100 µM
[2]
  TGI: > 100 µM
[14]
  TGI: > 100 µM
[4]
  TGI: > 100 µM
[5]
  TGI: > 100 µM
[7]
  TGI: > 100 µM
[15]
  TGI: > 100 µM
[16]
  TGI: 49.8 µM
[9]
  TGI: > 100 µM
[10]
  TGI: > 100 µM
[11]
  TGI: > 100 µM

## CNc1ccc(-c2nc3cc(C)ccc3o2)cc1
[12]
  TGI: 61 µM
[1]
  TGI: > 100 µM
[13]
  TGI: > 100 µM
[2]
  TGI: > 100 µM
[3]
  TGI: > 100 µM
[14]
  TGI: > 100 µM
[5]
  TGI: > 100 µM
[6]
  TGI: > 100 µM
[7]
  TGI: > 100 µM
[8]
  TGI: > 100 µM
[15]
  TGI: > 100 µM
[16]
  TGI: > 100 µM
[9]
  TGI: > 100 µM
[10]
  TGI: > 100 µM
[11]
  TGI: > 100 µM

## C=C1C[C@@H](O)C[C@@]2(C)C[C@@H]3OC(=O)C(=C)[C@@H]3C[C@H]12
[12]
  TGI: > 81.9 µM
[2]
  TGI: > 36.1 µM
[3]
  TGI: 14.1 µM
[14]
  TGI: 54.6 µM
[5]
  TGI: 5.94 µM
[7]
  TGI: 19.6 µM
[15]
  TGI: 39.3 µM
[16]
  TGI: 21.6 µM
[9]
  TGI: 26.4 µM
[10]
  TGI: 35.4 µM
[11]
  TGI: 16.1 µM

## N#Cc1c(SCc2ccccc2)nc(-c2ccccc2)[nH]c1=S
[12]
  TGI: 60.1 µM
[1]
  TGI: > 100 µM
[13]
  TGI: 67.1 µM
[2]
  TGI: > 100 µM
[3]
  TGI: 79 µM
[14]
  TGI: 55.1 µM
[5]
  TGI: > 100 µM
[6]
  TGI: 80.2 µM
[7]
  TGI: 82 µM
[8]
  TGI: 92 µM
[15]
  TGI: 32.4 µM
[9]
  TGI: > 100 µM
[10]
  TGI: 47.7 µM
[11]
  TGI: 85.2 µM

## CC(=O)OCC1OC(n2cc(F)c(=O)[nH]c2=O)C(N)C(OC(C)=O)C1OC(C)=O (stereo not drawn)
[12]
  TGI: > 100 µM
[2]
  TGI: > 100 µM
[3]
  TGI: > 100 µM
[14]
  TGI: > 100 µM
[5]
  TGI: > 100 µM
[7]
  TGI: > 100 µM
[15]
  TGI: > 100 µM
[16]
  TGI: > 100 µM
[9]
  TGI: > 100 µM
[10]
  TGI: > 100 µM
[11]
  TGI: > 100 µM

## O=C1CSc2nc3ccccc3n2/C=N\N1
[12]
  TGI: > 100 µM
[1]
  TGI: > 100 µM
[13]
  TGI: > 100 µM
[2]
  TGI: > 100 µM
[3]
  TGI: > 100 µM
[14]
  TGI: > 100 µM
[4]
  TGI: > 100 µM
[7]
  TGI: > 100 µM
[15]
  TGI: > 100 µM
[16]
  TGI: > 100 µM
[9]
  TGI: > 100 µM
[10]
  TGI: > 100 µM
[11]
  TGI: > 100 µM

## Cc1cc(-c2[nH]c(C(=O)O)cc2I)on1
[12]
  TGI: > 100 µM
[1]
  TGI: > 100 µM
[13]
  TGI: > 100 µM
[3]
  TGI: > 100 µM
[14]
  TGI: > 100 µM
[8]
  TGI: > 100 µM
[15]
  TGI: > 100 µM
[16]
  TGI: > 100 µM
[9]
  TGI: > 100 µM
[10]
  TGI: > 100 µM
[11]
  TGI: > 100 µM

## COc1ccc(N2C(=Nc3ccccc3)SC(=N/S(=O)(=O)c3ccccc3)/C2=N\S(=O)(=O)c2ccccc2)cc1
[1]
  TGI: 52.3 µM
[2]
  TGI: 46 µM
[4]
  TGI: 40.4 µM
[5]
  TGI: 33.4 µM
[6]
  TGI: 20.1 µM
[7]
  TGI: 39.8 µM
[8]
  TGI: 55.7 µM
[9]
  TGI: 57.5 µM
[10]
  TGI: 27.4 µM
[11]
  TGI: 45.6 µM

## Nc1nc2c(c(=O)[nH]1)N(C=O)C(CNc1ccc(C(=O)N[C@@H](CCC(=O)O)C(=O)O)cc1)CN2 (stereo partly drawn)
[12]
  TGI: > 125 µM
[2]
  TGI: > 31.4 µM
[3]
  TGI: > 125 µM
[14]
  TGI: > 125 µM
[5]
  TGI: > 31.4 µM
[7]
  TGI: > 125 µM
[15]
  TGI: 49.1 µM
[16]
  TGI: > 125 µM
[9]
  TGI: > 125 µM
[10]
  TGI: > 125 µM
[11]
  TGI: > 125 µM

## O=C(Nc1nc2c(=O)[nH]cnc2s1)c1ccccc1
[12]
  TGI: > 100 µM
[1]
  TGI: > 100 µM
[2]
  TGI: > 100 µM
[3]
  TGI: > 100 µM
[14]
  TGI: > 100 µM
[4]
  TGI: 61.9 µM
[5]
  TGI: > 100 µM
[7]
  TGI: > 100 µM
[8]
  TGI: > 100 µM
[15]
  TGI: > 100 µM
[16]
  TGI: > 100 µM
[9]
  TGI: > 100 µM
[10]
  TGI: > 100 µM

## C/C(=N\NS(=O)(=O)c1ccccc1)c1ccccc1
[12]
  TGI: > 100 µM
[2]
  TGI: > 100 µM
[3]
  TGI: > 100 µM
[14]
  TGI: > 100 µM
[5]
  TGI: > 100 µM
[7]
  TGI: > 100 µM
[15]
  TGI: > 100 µM
[16]
  TGI: > 100 µM
[9]
  TGI: > 100 µM
[10]
  TGI: > 100 µM
[11]
  TGI: > 100 µM

## O=C(Nc1c[nH]c(=O)[nH]c1=O)C(Cl)Cl
[12]
  TGI: > 100 µM
[1]
  TGI: > 100 µM
[13]
  TGI: > 100 µM
[2]
  TGI: > 100 µM
[3]
  TGI: > 100 µM
[14]
  TGI: > 100 µM
[5]
  TGI: > 100 µM
[6]
  TGI: > 100 µM
[7]
  TGI: > 100 µM
[15]
  TGI: > 100 µM
[16]
  TGI: > 100 µM
[9]
  TGI: > 100 µM
[10]
  TGI: > 100 µM
[11]
  TGI: > 100 µM

## CCOC(=O)c1sc2nc(SC)nc3c2c1NC(=O)CN3c1cccc(F)c1
[12]
  TGI: 37.4 µM
[1]
  TGI: 86.8 µM
[13]
  TGI: > 100 µM
[3]
  TGI: > 100 µM
[14]
  TGI: 40.2 µM
[4]
  TGI: > 100 µM
[5]
  TGI: 24.4 µM
[7]
  TGI: 35.5 µM
[8]
  TGI: 59.7 µM
[15]
  TGI: 67.6 µM
[16]
  TGI: > 100 µM
[9]
  TGI: 47.9 µM
[10]
  TGI: > 100 µM
[11]
  TGI: 67.7 µM

## Cc1ccc(OCC2OC(n3cnc4c(N(C)C)nc(Br)nc43)CC2Oc2ccc(C)cc2)cc1 (stereo not drawn)
[12]
  TGI: > 100 µM
[1]
  TGI: > 100 µM
[13]
  TGI: > 100 µM
[2]
  TGI: > 100 µM
[3]
  TGI: > 100 µM
[14]
  TGI: > 100 µM
[5]
  TGI: > 100 µM
[6]
  TGI: > 100 µM
[7]
  TGI: > 100 µM
[8]
  TGI: > 100 µM
[15]
  TGI: > 100 µM
[16]
  TGI: > 100 µM
[9]
  TGI: > 100 µM
[10]
  TGI: > 100 µM

## O=C1O/C(=C(\Br)c2cccc3ccccc23)c2ccccc21
[12]
  TGI: > 55.8 µM
[1]
  TGI: > 51.2 µM
[2]
  TGI: 46.1 µM
[14]
  TGI: > 53.6 µM
[4]
  TGI: 51.5 µM
[5]
  TGI: 47.7 µM
[7]
  TGI: 47.2 µM
[15]
  TGI: > 61 µM
[16]
  TGI: 33 µM
[10]
  TGI: > 55.8 µM
[11]
  TGI: 46.7 µM

## Cc1cc(O)c2c(c1O)C(=O)C13C(=C2O)C(=O)C2C(O)C1C1C(O)C3C(=O)C3=C(O)c4c(O)cc(C)c(O)c4C(=O)C321 (stereo not drawn)
[12]
  TGI: 0.319 µM
[2]
  TGI: 0.613 µM
[3]
  TGI: 0.696 µM
[14]
  TGI: 0.311 µM
[15]
  TGI: 0.468 µM
[16]
  TGI: 0.543 µM
[11]
  TGI: 0.483 µM
